≈ marks a conversion by molar mass, not a printed value.
What was measured:
Assay type in all cases: functional
Streptococcus pneumoniae [1] = assay: Antibacterial activity against Streptococcus pneumoniae
Enterococcus faecalis [2] = assay: Antibacterial activity against Streptococcus faecalis 1362/3
Escherichia coli [3] = assay: Antibacterial activity against Escherichia coli 1074
Haemophilus influenzae [4] = assay: Antibacterial activity against Haemophilus influenzae
Staphylococcus aureus [5] = assay: Antibacterial activity against Staphylococcus aureus 2999
Neisseria gonorrhoeae [6] = assay: Antibacterial activity against Neisseria gonorrhoeae
Candida albicans = assay: Antifungal activity against Candida albicans by NCCLS M27A method
Aspergillus niger = assay: Antifungal activity against Aspergillus niger by NCCLS M27A method
Neisseria gonorrhoeae [7] = assay: Antibacterial activity against Neisseria gonorrhoeae by NCCLS M27A method
Staphylococcus aureus [8] = assay: Antibacterial activity against Staphylococcus aureus 2999 by NCCLS M27A method
Aspergillus fumigatus = assay: Antifungal activity against Aspergillus fumigatus by NCCLS M27A method
Enterococcus faecalis [9] = assay: Antibacterial activity against Streptococcus faecalis 1362/3 by NCCLS M27A method
Haemophilus influenzae [10] = assay: Antibacterial activity against Haemophilus influenzae by NCCLS M27A method
Escherichia coli [11] = assay: Antibacterial activity against Escherichia coli 1074 by NCCLS M27A method
Streptococcus pneumoniae [12] = assay: Antibacterial activity against Streptococcus pneumoniae by NCCLS M27A method

Row | MIC (Streptococcus pneumoniae [1]) [µg/mL] | MIC (Enterococcus faecalis [2]) [µg/mL] | MIC (Escherichia coli [3]) [µg/mL] | MIC (Haemophilus influenzae [4]) [µg/mL] | MIC (Staphylococcus aureus [5]) [µg/mL] | MIC (Neisseria gonorrhoeae [6]) [µg/mL] | Structure (SMILES) | MIC (Candida albicans) [µg/mL] | MIC (Aspergillus niger) [µg/mL] | MIC (Neisseria gonorrhoeae [7]) [µg/mL] | MIC (Staphylococcus aureus [8]) [µg/mL] | MIC (Aspergillus fumigatus) [µg/mL] | MIC (Enterococcus faecalis [9]) [µg/mL] | MIC (Haemophilus influenzae [10]) [µg/mL] | MIC (Escherichia coli [11]) [µg/mL] | MIC (Streptococcus pneumoniae [12]) [µg/mL]
1 | 0.1 (≈ 0.144 µM) | 16 (≈ 23 µM) | 128 (≈ 184 µM) | 0.01 (≈ 0.0144 µM) | 0.01 (≈ 0.0144 µM) | 0.1 (≈ 0.144 µM) | CO[C@H]1/C=C/O[C@@]2(C)Oc3c(C)c(O)c4c(c3C2=O)C(=O)C=C(NC(=O)/C(C)=C\C=C\[C@H](C)[C@H](O)[C@@H](C)[C@@H](O)[C@@H](C)[C@H](OC(C)=O)[C@@H]1C)C4=O [RIFAMYCIN S] |  |  |  |  |  |  |  |  | 
2 |  |  |  |  |  |  | CCC1/C=C/[C@H](O)[C@H](C)OC(=O)[C@@]2(C)C=CC(=O)NC3=C2C(=O)c2c(cc(C)c(O)c2C(=O)CC1)C3=O (some centres undefined) [HYGROCIN B] | 128 (≈ 252 µM) | 64 (≈ 126 µM) | 128 (≈ 252 µM) | 128 (≈ 252 µM) | 32 (≈ 63 µM) | 128 (≈ 252 µM) | 128 (≈ 252 µM) | 128 (≈ 252 µM) | 128 (≈ 252 µM)
3 |  |  |  |  |  |  | CCC1/C=C/[C@H](O)[C@H](C)OC(=O)/C(C)=C\CC(=O)NC2=CC(=O)c3c(cc(C)c(O)c3C(=O)CC1)C2=O (some centres undefined) [HYGROCIN A] | 128 (≈ 251 µM) | 32 (≈ 62.8 µM) | 64 (≈ 126 µM) | 128 (≈ 251 µM) | 16 (≈ 31.4 µM) | 128 (≈ 251 µM) | 128 (≈ 251 µM) | 128 (≈ 251 µM) | 16 (≈ 31.4 µM)

From ChEMBL document CHEMBL1151278, “Hygrocins a and B, naphthoquinone macrolides from Streptomyces hygroscopicus” (2005)
